Results from patent US10794932B2, “Biosensor for the detection of a biological target, and method for manufacturing the same” (The Governing Council of The University of Toronto, priority 2016, dated 2020).

Target: T1, rmTLR5 (Mus musculus, UniProt Q9JLF7)
T1 construct: purchased
Experiment: Selectivity test, TLR5 sensor, EIS
Format: binding
Settings: 10 μM
Experimental: TLR sensors were prepared using fresh, cleaned gold electrodes. The electrodes were immersed in a 2 mM 1-lipoic acid n-hydroxysuccinimide ester (LPA) ethanol solution for 48 hours at 277 K. The electrodes were then rinsed thoroughly using absolute ethanol and blown dry under nitrogen before incubation in 200 μg/ml rmTLR1, 200 μg/ml rmTLR2 and 200 μg/ml ‘rmTLR1 and 2’ mixture for 72 hours at 277 K. The rmTLR1 and 2 mixture was prepared by mixing 200 μg/ml rmTLR1 and 200 μg/ml rmTLR2 with a volume ratio of 1:1. The final concentration of each component was 100 μg/ml and the total concentration of the combined TLR protein content was 200 μg/ml. Following the supplier's recommended conditions, all TLRs were prepared in PBS buffer (pH˜7.4). The electrodes were rinsed with an excess volume of Milli-Q water and blown dry under nitrogen. An ethanolamine-tris buffer solution was prepared by dissolving 1.2 g of ethanolamine and 0.121 g of Tris base in 20 mL of water, the pH was adjusted to 8.4 using hydrochloric acid. […]
All electrochemical measurements were carried out using a cell with a three-electrode configuration in an enclosed Faraday cage. […] The experimental EIS curves were evaluated to determine the film resistance using ZSimpWin 2.0 software. […]

T1 sequence (Q9JLF7 27-859): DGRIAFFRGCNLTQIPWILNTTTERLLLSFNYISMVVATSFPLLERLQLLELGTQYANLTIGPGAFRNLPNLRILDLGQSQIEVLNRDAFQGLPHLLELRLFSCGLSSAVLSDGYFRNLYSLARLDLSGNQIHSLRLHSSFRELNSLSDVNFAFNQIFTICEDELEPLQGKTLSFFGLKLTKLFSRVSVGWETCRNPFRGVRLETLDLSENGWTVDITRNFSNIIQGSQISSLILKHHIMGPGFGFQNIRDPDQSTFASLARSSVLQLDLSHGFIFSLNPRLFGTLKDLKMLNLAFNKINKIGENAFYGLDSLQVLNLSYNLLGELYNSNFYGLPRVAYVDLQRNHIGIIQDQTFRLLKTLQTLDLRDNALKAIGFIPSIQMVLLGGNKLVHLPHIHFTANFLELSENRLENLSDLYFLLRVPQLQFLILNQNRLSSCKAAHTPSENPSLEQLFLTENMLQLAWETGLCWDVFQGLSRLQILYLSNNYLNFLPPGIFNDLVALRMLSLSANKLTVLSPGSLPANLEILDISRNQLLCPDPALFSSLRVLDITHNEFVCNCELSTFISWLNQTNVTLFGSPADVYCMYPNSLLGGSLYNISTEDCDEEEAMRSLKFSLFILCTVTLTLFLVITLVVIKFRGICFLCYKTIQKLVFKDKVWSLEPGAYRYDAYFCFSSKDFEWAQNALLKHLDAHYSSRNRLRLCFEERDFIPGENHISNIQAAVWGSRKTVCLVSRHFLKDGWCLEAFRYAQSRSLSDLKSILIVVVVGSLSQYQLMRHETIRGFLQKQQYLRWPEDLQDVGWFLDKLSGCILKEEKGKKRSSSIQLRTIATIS

Pam3CSK4 was tested, and the “electrochemical response (selectivity test)” value was “slight signal variations”.
